Here are results for 14 compounds from PubChem BioAssay (NCI).

Some test systems named below: MDA-N; PC-3 prostate; SNB-75 CNS; HCT-15 colon; OVCAR-4 ovarian; UACC-62 melanoma; RPMI-8226 leukemia; T-47D breast; CCRF-CEM leukemia; OVCAR-5 ovarian; HCT-116 colon; MDA-MB-231 breast; EKVX NSCLC; ACHN renal; NCI-H460 lung; A498 renal; SF-295 CNS; SR leukemia; HCC-2998 colon; NCI-H226 lung.
Holding throughout (assay): NCI-60 cell line screen, 48 h

Each structure is given as a SMILES string.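 Exposure lasted 48 hours, with cells grown in 96-well plates and compounds tested at five concentrations. TGI denotes the concentration required for complete inhibition of growth.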 Where only a bound is given, the exact number is not on record here.

On to `CC1(C)CC[C@]2(C(=O)O)CC[C@]3(C)C(=CC[C@@H]4[C@@]5(C)C[C@H](O)[C@H](O)[C@@](C)(CO)C5=CC[C@]43C)[C@@H]2C1`, for which the TGI in the test with MDA-N is over 100 µM; with PC-3 prostate it was over 100 µM; in the test with SNB-75 CNS, over 100 µM; in the test with HCT-15 colon, over 100 µM; with OVCAR-4 ovarian it was 68.5 µM; with UACC-62 melanoma it was over 100 µM. Also, the TGI in the test on RPMI-8226 leukemia, in the test with T-47D breast, in the test with CCRF-CEM leukemia, in the test with OVCAR-5 ovarian, in the test on HCT-116 colon and in the test with MDA-MB-231 breast was over 100 µM in each case. Besides, the TGI is over 100 µM in the test on EKVX NSCLC; over 100 µM in the test with ACHN renal; 72.2 µM in the test with NCI-H460 lung; over 100 µM with A498 renal; over 100 µM in the test on SF-295 CNS; over 100 µM in the test with SR leukemia. The TGI in the test with HCC-2998 colon was determined as 92.6 µM.

With `COc1cccc2c(NNc3ccccc3)c3ccc([N+](=O)[O-])cc3nc12`, the TGI in the test on MDA-N, in the test with PC-3 prostate, in the test with HCT-15 colon, in the test on OVCAR-4 ovarian, with UACC-62 melanoma and in the test on RPMI-8226 leukemia was over 100 µM throughout. The TGI in the test with T-47D breast, with CCRF-CEM leukemia, in the test with OVCAR-5 ovarian, with NCI-H226 lung, in the test on HCT-116 colon and in the test on MDA-MB-231 breast was over 100 µM throughout. For the same compound, the TGI in the test on EKVX NSCLC is over 100 µM; in the test with ACHN renal, over 100 µM; in the test on NCI-H460 lung, over 100 µM; in the test on A498 renal, over 100 µM; with SF-295 CNS, over 100 µM; in the test with SR leukemia, 50.5 µM. Also, the TGI in the test with HCC-2998 colon is over 100 µM.

For `Cc1ccc(S(=O)(=O)OC2=C/C(=N\c3onc(C)c3C)c3ccccc3C2=O)cc1`, the TGI in the test on MDA-N was over 100 µM; in the test with PC-3 prostate, 40.1 µM; with SNB-75 CNS, over 100 µM; with HCT-15 colon, over 100 µM; in the test on OVCAR-4 ovarian, 29.9 µM; in the test on UACC-62 melanoma, 57.7 µM. Further, the TGI is 53.8 µM in the test on RPMI-8226 leukemia; 64.8 µM in the test with T-47D breast; 42.1 µM in the test with OVCAR-5 ovarian; over 100 µM with NCI-H226 lung; 37.7 µM in the test on HCT-116 colon; 41.6 µM in the test on MDA-MB-231 breast. For the same compound, the TGI with EKVX NSCLC, in the test with ACHN renal, with NCI-H460 lung, with A498 renal, in the test on SF-295 CNS and with SR leukemia was over 100 µM throughout.

Consider `CCCCCCCC/C=C\CCCCCCC(F)C(=O)O` (stereo unspecified), for which the TGI in the test on MDA-N, with PC-3 prostate, in the test with SNB-75 CNS, in the test with HCT-15 colon, with OVCAR-4 ovarian and with RPMI-8226 leukemia was over 12.5 µM throughout. The TGI in the test on T-47D breast, with CCRF-CEM leukemia, with OVCAR-5 ovarian, with NCI-H226 lung, with HCT-116 colon and with MDA-MB-231 breast was over 12.5 µM in each case. Also, the TGI with EKVX NSCLC, in the test on ACHN renal, with A498 renal, with SF-295 CNS, in the test with SR leukemia and with HCC-2998 colon was over 12.5 µM each time.

Consider `CSC(=NCCCCN=C(NS(=O)(=O)c1ccc(Cl)cc1)SC)NS(=O)(=O)c1ccc(Cl)cc1`, for which the TGI in the test on MDA-N, in the test on PC-3 prostate, in the test on HCT-15 colon, in the test on OVCAR-4 ovarian, with UACC-62 melanoma and with RPMI-8226 leukemia was over 100 µM throughout. The TGI in the test with T-47D breast, in the test on CCRF-CEM leukemia, in the test on OVCAR-5 ovarian, with HCT-116 colon, in the test with MDA-MB-231 breast and in the test with EKVX NSCLC was over 100 µM each time. The TGI in the test on ACHN renal, with NCI-H460 lung, in the test with A498 renal, with SF-295 CNS, in the test on SR leukemia and in the test on HCC-2998 colon was over 100 µM in each case.

Turning to `Nc1cc2c3c(cccc3c1)C(=O)N(c1ccc(OCCN3CCCCC3)cc1)C2=O`, the TGI in the test on MDA-N came to 41.2 µM; in the test with PC-3 prostate it was 32.9 µM; in the test with SNB-75 CNS it was 30.6 µM; with HCT-15 colon, 25.4 µM; in the test with OVCAR-4 ovarian it was 35.7 µM; in the test on UACC-62 melanoma, 36.6 µM. The TGI with RPMI-8226 leukemia amounted to 41.7 µM; in the test on T-47D breast it was 46.6 µM; with CCRF-CEM leukemia it was 88.3 µM; in the test on OVCAR-5 ovarian, 44 µM; in the test with NCI-H226 lung, 42.1 µM; with HCT-116 colon, 51.7 µM. For the same compound, the TGI with MDA-MB-231 breast is 31.5 µM; in the test with EKVX NSCLC, 45.7 µM; in the test on ACHN renal, 29.4 µM; in the test on A498 renal, 31.9 µM; in the test on SF-295 CNS, 33.4 µM; in the test with SR leukemia, 36.6 µM. Also, in the test on HCC-2998 colon, the TGI amounted to 34 µM.

As to `N#CC1=C(S)N(C2OC(CO)C(O)C(O)C2O)C(c2ccccc2)=CC1c1ccccc1` (stereo unspecified), the TGI in the test on MDA-N was over 100 µM; with PC-3 prostate it was over 100 µM; with SNB-75 CNS, over 100 µM; with HCT-15 colon it was over 100 µM; in the test on OVCAR-4 ovarian, over 100 µM; in the test on UACC-62 melanoma, 62.7 µM. Also, the TGI with RPMI-8226 leukemia is over 100 µM; with T-47D breast it was 96.7 µM; with CCRF-CEM leukemia it was over 100 µM; in the test on OVCAR-5 ovarian, over 100 µM; in the test on NCI-H226 lung it was over 100 µM; with HCT-116 colon, over 100 µM. For the same compound, the TGI with MDA-MB-231 breast, in the test with ACHN renal, in the test with NCI-H460 lung, in the test with A498 renal, in the test with SF-295 CNS and with SR leukemia was over 100 µM in each case. The TGI in the test on HCC-2998 colon came out at 96.4 µM.

Consider `CCOC(=O)CC(=O)C(=O)NNC1=NCCCN1`, for which the TGI in the test on MDA-N, in the test on PC-3 prostate, with SNB-75 CNS, in the test on HCT-15 colon, in the test on OVCAR-4 ovarian and in the test on UACC-62 melanoma was over 100 µM throughout. Besides, the TGI in the test with RPMI-8226 leukemia, with T-47D breast, in the test on CCRF-CEM leukemia, in the test on OVCAR-5 ovarian, in the test with NCI-H226 lung and in the test with HCT-116 colon was over 100 µM each time. In addition, the TGI in the test on MDA-MB-231 breast, in the test with EKVX NSCLC, in the test on ACHN renal, with NCI-H460 lung, in the test on SF-295 CNS and in the test on SR leukemia was over 100 µM throughout. Further, the TGI in the test with HCC-2998 colon was over 100 µM.

For the compound `COC(=O)C(=O)c1c2ccccc2n2ccc3c4ccccc4[nH]c3c12`, the TGI in the test on MDA-N, with PC-3 prostate, in the test on SNB-75 CNS, with HCT-15 colon, in the test with OVCAR-4 ovarian and in the test on UACC-62 melanoma was over 10 µM throughout. The TGI in the test with RPMI-8226 leukemia, in the test with T-47D breast, in the test on CCRF-CEM leukemia, in the test with OVCAR-5 ovarian, with NCI-H226 lung and in the test on HCT-116 colon was over 10 µM throughout. For the same compound, the TGI in the test on MDA-MB-231 breast, with EKVX NSCLC, with ACHN renal, in the test on NCI-H460 lung, in the test with SF-295 CNS and with SR leukemia was over 10 µM each time. In the test with HCC-2998 colon, this compound had a TGI of over 10 µM.

On to `COC(=O)C[C@@H]1C(C)(C)[C@@H]2O[C@@]34C[C@@H]2C(=O)[C@]1(C)[C@H]3CC[C@@]1(C)[C@H](c2ccoc2)OC(=O)C[C@]14O`, for which the TGI with MDA-N, in the test on PC-3 prostate, with SNB-75 CNS, with HCT-15 colon, in the test on OVCAR-4 ovarian and in the test with UACC-62 melanoma was over 100 µM throughout. The TGI in the test with RPMI-8226 leukemia, in the test with T-47D breast, in the test on CCRF-CEM leukemia, in the test on OVCAR-5 ovarian, in the test with NCI-H226 lung and with HCT-116 colon was over 100 µM throughout. The TGI in the test with MDA-MB-231 breast, in the test on EKVX NSCLC, with ACHN renal, in the test with NCI-H460 lung, with A498 renal and in the test with SF-295 CNS was over 100 µM each time. Also, the TGI in the test on SR leukemia is over 100 µM.

For the compound `COc1ccc(C(=O)N2CCc3c([nH]c4ccccc34)C2C(=O)O)o1` (stereo unspecified), the TGI with MDA-N, with PC-3 prostate, in the test on SNB-75 CNS, in the test on HCT-15 colon, in the test on OVCAR-4 ovarian and with UACC-62 melanoma was over 10 µM throughout. The TGI in the test with RPMI-8226 leukemia, with T-47D breast, in the test with CCRF-CEM leukemia, with HCT-116 colon, with MDA-MB-231 breast and with EKVX NSCLC was over 10 µM each time. Besides, the TGI with ACHN renal, in the test with A498 renal, in the test on SF-295 CNS, in the test with SR leukemia and in the test with HCC-2998 colon was over 10 µM throughout.

Regarding `CCOC(=O)C(NC(=O)c1ccccc1)(Nc1ccc(S(=O)(=O)Nc2nc(C)cc(C)n2)cc1)C(F)(F)F` (stereo unspecified), the TGI in the test with MDA-N, with PC-3 prostate, in the test with SNB-75 CNS, in the test with HCT-15 colon, with OVCAR-4 ovarian and with UACC-62 melanoma was over 100 µM throughout. In addition, the TGI in the test with RPMI-8226 leukemia, with T-47D breast, in the test on CCRF-CEM leukemia, with OVCAR-5 ovarian, in the test with NCI-H226 lung and with HCT-116 colon was over 100 µM throughout. The TGI in the test on MDA-MB-231 breast, in the test on EKVX NSCLC, in the test with ACHN renal, in the test on NCI-H460 lung, in the test with SF-295 CNS and in the test with SR leukemia was over 100 µM throughout. The same compound showed a TGI with HCC-2998 colon of over 100 µM.

In the case of `CC(=O)OCCCCn1cnc2nc(Nc3ccccc3)nc(Cl)c21`, the TGI in the test on MDA-N, in the test on PC-3 prostate, in the test on SNB-75 CNS, in the test with HCT-15 colon, with OVCAR-4 ovarian and in the test with UACC-62 melanoma was over 100 µM throughout. For the same compound, the TGI with RPMI-8226 leukemia, with T-47D breast, with CCRF-CEM leukemia, in the test with NCI-H226 lung, in the test with HCT-116 colon and in the test on MDA-MB-231 breast was over 100 µM throughout. Also, the TGI in the test with EKVX NSCLC, in the test on ACHN renal, in the test on NCI-H460 lung, with A498 renal, in the test on SF-295 CNS and with SR leukemia was over 100 µM each time. The TGI in the test with HCC-2998 colon is over 100 µM.

For the compound `CN(c1ccccc1)S(=O)(=O)c1ccccc1[N+](=O)[O-]`, the TGI in the test on MDA-N, with PC-3 prostate, in the test with SNB-75 CNS, in the test on HCT-15 colon, in the test on OVCAR-4 ovarian and in the test on UACC-62 melanoma was over 100 µM throughout. Besides, the TGI with RPMI-8226 leukemia, in the test on T-47D breast, in the test with CCRF-CEM leukemia, in the test with OVCAR-5 ovarian, in the test with NCI-H226 lung and in the test on HCT-116 colon was over 100 µM in each case. Further, the TGI with MDA-MB-231 breast, in the test with EKVX NSCLC, in the test with ACHN renal, in the test with NCI-H460 lung, in the test on SF-295 CNS and in the test with SR leukemia was over 100 µM in each case. The TGI with HCC-2998 colon was over 100 µM.
